In ChEMBL document CHEMBL5518244, “Design, Synthesis, and Biological Evaluation of a Novel NIK Inhibitor with Anti-Inflammatory and Hepatoprotective Effects for Sepsis Treatment” (J Med Chem, 2024) one finds IC50 and inhibition data, which are given here for 55 compounds.

pIC50: −log10 of the molar value. Calls of active or inactive are those of the source. The rule behind the calls is not given here.

In assay [1] the target is T1, Mitogen-activated protein kinase kinase kinase 14 (Homo sapiens, UniProt Q99558). The assay can be described thus: Inhibition of NIK (unknown origin) incubated 30 to 60 mins by ADP-Glo Kinase. (In general: In ADP-Glo the light output rises with the ADP produced.)
Target sequence in this assay (Q99558 whole entry): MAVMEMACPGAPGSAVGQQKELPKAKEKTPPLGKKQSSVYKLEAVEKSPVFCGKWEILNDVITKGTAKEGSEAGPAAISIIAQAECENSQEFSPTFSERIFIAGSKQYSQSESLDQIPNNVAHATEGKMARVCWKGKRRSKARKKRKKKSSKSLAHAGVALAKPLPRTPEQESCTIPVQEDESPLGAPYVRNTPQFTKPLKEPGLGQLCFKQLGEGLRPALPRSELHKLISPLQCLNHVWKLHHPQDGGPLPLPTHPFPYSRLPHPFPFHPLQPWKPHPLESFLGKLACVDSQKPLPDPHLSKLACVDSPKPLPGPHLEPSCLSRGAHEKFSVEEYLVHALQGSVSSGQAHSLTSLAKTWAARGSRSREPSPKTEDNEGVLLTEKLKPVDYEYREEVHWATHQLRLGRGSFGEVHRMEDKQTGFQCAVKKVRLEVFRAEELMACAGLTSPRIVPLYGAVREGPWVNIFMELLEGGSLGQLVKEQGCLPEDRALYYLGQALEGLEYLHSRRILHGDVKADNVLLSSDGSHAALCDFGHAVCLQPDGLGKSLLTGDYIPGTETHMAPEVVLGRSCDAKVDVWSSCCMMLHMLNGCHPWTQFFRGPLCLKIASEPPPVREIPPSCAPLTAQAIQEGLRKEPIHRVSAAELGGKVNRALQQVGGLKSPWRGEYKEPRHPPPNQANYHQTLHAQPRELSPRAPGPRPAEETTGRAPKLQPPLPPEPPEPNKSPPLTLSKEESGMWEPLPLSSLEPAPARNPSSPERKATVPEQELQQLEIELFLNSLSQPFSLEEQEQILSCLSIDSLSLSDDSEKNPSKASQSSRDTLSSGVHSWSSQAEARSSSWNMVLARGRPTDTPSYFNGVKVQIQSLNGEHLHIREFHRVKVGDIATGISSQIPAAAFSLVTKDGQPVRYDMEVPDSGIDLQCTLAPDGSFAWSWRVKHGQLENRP
Assay [2] deals with T1, Mitogen-activated protein kinase kinase kinase 14. The assay can be described thus: Inhibition of NIK (unknown origin) expressed in COS-7 cells co-expressing NF-KappaB luciferase reporter assessed as suppression of luciferase reporter at 1 uM measured after 24 by beta-Gal activity assay. It is filed as cell-based. In general terms: Reporter assays use an easily measured gene product as a stand-in for the process of interest.
Target sequence in this assay (Q99558 whole entry, looked up): as the sequence (Q99558 whole entry) above

For assay [3] the target is unchanged. The assay can be described thus: Inhibition of NIK (unknown origin) expressed in COS-7 cells co-expressing NF-KappaB luciferase reporter assessed as suppression of luciferase reporter at 5 uM measured after 24 by beta-Gal activity assay. In kind it is cell-based.
Target sequence in this assay (Q99558 whole entry, looked up): as the sequence (Q99558 whole entry) above
For assay [4] the target is unchanged. Briefly: Inhibition of NIK (unknown origin) expressed in COS-7 cells co-expressing NF-KappaB luciferase reporter assessed as suppression of luciferase reporter measured after 24 by beta-Gal activity assay. It is filed as cell-based.
Target sequence in this assay (Q99558 whole entry): as above
The subject of the next assay is Macrophage. Briefly: Anti-inflammatory activity in mouse macrophages extracted from abdominal activity assessed as inhibition of LPS-induced nitric oxide production at 1 uM measured after 22 hrs by Griess reagent assay relative to control. It is filed as functional, cell-based. Background: Nitrite, measured by Griess reagent, commonly stands in for NO production.

As usually defined, the pIC50 is the IC50 on a negative log10 scale, so that one unit is a factor of ten. `Cc1cc(C(C)(O)C#Cc2cc3n(n2)CCCN3c2ccnc(Nc3ccc4c(c3)OCO4)n2)no1` (stereo not given) had a pIC50 in assay [1] of 8.42.
Compound `CC(O)(C#Cc1cc2n(n1)CCCN2c1ncnc2[nH]ccc12)c1nccs1` (stereo not given) showed a negative-log IC50 (pIC50) in assay [1] of less than 6.30.
The same measure, in the same setting: the same measure for `CC(O)(C#Cc1cc2n(n1)CCCN2c1ccnc(Nc2cccc(N3CCOCC3)c2)n1)c1nccs1` (stereo not given): 7.94.
On the same count and under the same terms, as for `CC(O)(C#Cc1cc2n(n1)CCCN2c1ccnc(Nc2ccc(F)cn2)n1)c1nccs1` (stereo not given), the figure is 8.08; as for `CC(O)(C#Cc1cc2n(n1)CCCN2c1ccnc(NC2CCCCC2)n1)c1nccs1` (stereo not given), 6.88.
On the same count and under the same terms, the same measure for `CC(O)(C#Cc1cc2n(n1)CCCN2c1ccnc(Nc2cccc(C(F)(F)F)n2)n1)c1nccs1` (stereo not given): 7.78; for `CC(O)(C#Cc1cc2n(n1)CCCN2c1cc(Nc2ccc(F)cc2)ncn1)c1nccs1` (stereo not given): 7.23; for `C(#Cc1cc2n(n1)CCCN2c1ccnc(Nc2ccc3c(c2)OCO3)n1)c1ccccn1`: less than 6.30.
Regarding `CC(O)(C#Cc1cc2n(n1)CCCN2c1ccnc(Nc2ccc3c(c2)OC(F)(F)O3)n1)c1nccs1` (stereo not given), in assay [1], the negative logarithm of the IC50 (pIC50) is 7.81.
Consider `CC(O)(C#Cc1cc2n(n1)CCCN2c1ccnc(N)n1)c1nccs1` (stereo not given), for which the pIC50 in assay [1] is 8.34.
For `COc1cccc(Nc2nccc(N3CCCn4nc(C#CC(C)(O)c5nccs5)cc43)n2)n1` (stereo not given), in assay [1], the pIC50 was 8.35.
Turning to `COc1cccc(Nc2nccc(N3CCCn4nc(C#CC(C)(O)c5nccs5)cc43)n2)c1` (stereo not given), the pIC50 in assay [1] is 8.24; in assay [4] it was 5.88; in the assay on Macrophage it was 4.34. Further, the inhibition entry in assay [2] and in assay [3] was “Active” each time.
In assay [1], `COc1cccnc1Nc1nccc(N2CCCn3nc(C#CC(C)(O)c4nccs4)cc32)n1` (stereo not given) showed a pIC50 of 6.36.
`CC(O)(C#Cc1cc2n(n1)CCCN2c1ccnc(Nc2ccccc2)n1)c1nccs1` (stereo not given): the pIC50 in assay [1] was 8.32; in assay [4], 5.66; with Macrophage, 4.23. In addition, the inhibition result in assay [2] and in assay [3] was “Active” throughout.
For `OC1(C#Cc2cc3n(n2)CCCN3c2ccnc(Nc3ccc4c(c3)OCO4)n2)CCCC1`, in assay [1], the negative logarithm of the IC50 (pIC50) is 7.85.
Turning to `CN(C)c1cccc(Nc2nccc(N3CCCn4nc(C#CC(C)(O)c5nccs5)cc43)n2)c1` (stereo not given), the negative-log IC50 (pIC50) is 8.11 in assay [1], 5.65 in assay [4] and 4.11 in the assay on Macrophage. In addition, the inhibition result in assay [2] and in assay [3] was “Active” in each case.
In turn, `CC(O)(C#Cc1cc2n(n1)CCCN2c1ccnc(Nc2cc(C#N)ccn2)n1)c1nccs1` (stereo not given) showed a pIC50 in assay [1] of 8.16.
In turn, `COCCN(C)c1cccc(Nc2nccc(N3CCCn4nc(C#CC(C)(O)c5nccs5)cc43)n2)n1` (stereo not given) had a negative-log IC50 (pIC50) in assay [1] of 7.83.
The same measure, in the same setting: as for `COc1ccc(Nc2nccc(N3CCCn4nc(C#CC(C)(O)c5nccs5)cc43)n2)nc1` (stereo not given), the figure is 8.13.
Turning to `CC(O)(C#Cc1ccc2c(c1)N(c1nc(N)ncc1Cl)CC2)c1nccs1` (stereo not given), the pIC50 in assay [1] was 8.57; in assay [4], 6.04; in the assay with Macrophage, 4.23.
In assay [1], `CC(O)(C#Cc1cc2n(n1)CCCN2c1nc(N)ncc1Cl)c1nccs1` (stereo not given) had a pIC50 of 7.15.
In assay [1], `COCCNc1nccc(N2CCCn3nc(C#CC(C)(O)c4nccs4)cc32)n1` (stereo not given) showed a pIC50 of 7.47.
Still for that read-out and setting: as for `Cn1ccc(Nc2nccc(N3CCCn4nc(C#CC(C)(O)c5nccs5)cc43)n2)n1` (stereo not given), the figure is 8.03; as for `CC(O)(C#Cc1cc2n(n1)CCCN2c1ccnc(Nc2cc(N3CCOCC3)ccn2)n1)c1nccs1` (stereo not given), 6.47.
Still for that read-out and setting: as for `CC(O)(C#Cc1cc2n(n1)CCCN2c1ncnc(Nc2ccc(Cl)cc2)n1)c1nccs1` (stereo not given), the figure is 8.33; as for `COc1cc(Nc2nccc(N3CCCn4nc(C#CC(C)(O)c5nccs5)cc43)n2)cc(OC)c1` (stereo not given), 8.17.
Consider `CC(O)(C#Cc1cc2n(n1)CCCN2c1ccnc(Nc2cccc(N3CCOCC3)n2)n1)c1nccs1` (stereo not given), for which the negative-log IC50 (pIC50) in assay [1] is 8.01; in assay [4], 5.61; in the assay with Macrophage, 4.76. Also, the inhibition result in assay [2] and in assay [3] was “Active” throughout.
In the case of `CN(C)c1ccnc(Nc2nccc(N3CCCn4nc(C#CC(C)(O)c5nccs5)cc43)n2)c1` (stereo not given), in assay [1], the pIC50 was 6.68.
Still for that read-out and setting: as for `CC(O)(C#Cc1cc2n(n1)CCCN2c1ccnc(Nc2ccc3c(c2)OCO3)n1)c1ccccc1` (stereo not given), the figure is 7.54; as for `COc1cc(Nc2nccc(N3CCCn4nc(C#CC(C)(O)c5nccs5)cc43)n2)nc(OC)c1` (stereo not given), 7.97.
Take `CC(O)(C#Cc1cc2n(n1)CCCN2c1ccnc(Nc2ccc3c(c2)OCO3)n1)c1nccs1` (stereo not given): the values for the negative-log IC50 (pIC50) (in assay [1]; in assay [4]; with Macrophage) were 8.55, 5.85 and 4.10, respectively. In addition, the inhibition entry in assay [2] and in assay [3] was “Active” throughout.
In the case of `CC(O)(C#Cc1cc2n(n1)CCCN2c1nc(N)ncc1F)c1nccs1` (stereo not given), the negative-log IC50 (pIC50) in assay [1] is less than 6.30.
The same measure, in the same setting: the same measure for `CC(O)(C#Cc1cc2n(n1)CCCN2c1cccc(Nc2ccccc2)n1)c1nccs1` (stereo not given): less than 6.30.
Same read-out and setting: as for `CC(O)(C#Cc1cc2n(n1)CCCN2c1ccnc(Nc2cc(Cl)ccn2)n1)c1nccs1` (stereo not given), the figure is 8.16; as for `CC(O)(C#Cc1cc2n(n1)CCCN2c1ccnc(Nc2ccc(Cl)cc2)n1)c1nccs1` (stereo not given), 8.19.
Same read-out and setting: as for `CN(C)c1cccc(Nc2nccc(N3CCCn4nc(C#CC(C)(O)c5nccs5)cc43)n2)n1` (stereo not given), the figure is 7.89.
Take `CC(O)(C#Cc1cc2n(n1)CCCN2c1ccnc(NC23CC(C2)C3)n1)c1nccs1` (stereo not given): the negative logarithm of the IC50 (pIC50) in assay [1] is 8.27; in assay [4] it was 5.82; with Macrophage, 4.78. The inhibition entry in assay [2] and in assay [3] was “Active” throughout.
Take `CC(O)(C#Cc1cc2n(n1)CCCN2c1ccnc(Nc2cccc(C#N)c2)n1)c1nccs1` (stereo not given): the pIC50 in assay [1] was 8.30; in assay [4] it was 5.45; with Macrophage it was 4.19. Also, the inhibition result in assay [2] and in assay [3] was “Active” each time.
In assay [1], `CC(C)Nc1nccc(N2CCCn3nc(C#CC(C)(O)c4nccs4)cc32)n1` (stereo not given) gave a pIC50 of 7.84.
On the same count and under the same terms, as for `CNc1nccc(N2CCCn3nc(C#CC(C)(O)c4nccs4)cc32)n1` (stereo not given), the figure is 7.95; as for `CC(C)n1cc(Nc2nccc(N3CCCn4nc(C#CC(C)(O)c5nccs5)cc43)n2)cn1` (stereo not given), 8.04; as for `CC(O)(C#Cc1cc2n(n1)CCCN2c1ccnc(Nc2ccc(F)cc2)n1)c1nccs1` (stereo not given), 8.21.
Same read-out and setting: as for `CC(O)(C#Cc1cc2n(n1)CCCN2c1ccnc(Nc2ccncn2)n1)c1nccs1` (stereo not given), the figure is 7.95; as for `COc1cc(Nc2nccc(N3CCCn4nc(C#C[C@](C)(O)c5nccs5)cc43)n2)cc(OC)c1`, 7.05; as for `CC(O)(C#Cc1cc2n(n1)CCCN2c1ccnc(Nc2ccc3ccccc3n2)n1)c1nccs1` (stereo not given), 7.66.
On the same count and under the same terms, the same measure for `COc1ccnc(Nc2nccc(N3CCCn4nc(C#CC(C)(O)c5nccs5)cc43)n2)c1` (stereo not given): 8.29; for `C(#CC1CC1)c1cc2n(n1)CCCN2c1ccnc(Nc2ccc3c(c2)OCO3)n1`: less than 6.30.
In the case of `CC(O)(C#Cc1cc2n(n1)CCCN2c1ccnc(Nc2cccc(N3CCCCC3)n2)n1)c1nccs1` (stereo not given), the negative-log IC50 (pIC50) in assay [1] was 7.61.
Regarding `CC(C)(O)C#Cc1cc2n(n1)CCCN2c1ccnc(Nc2ccc3c(c2)OCO3)n1`, in assay [1], the pIC50 was 7.64.
The compound `CC(C)Oc1cccc(Nc2nccc(N3CCCn4nc(C#CC(C)(O)c5nccs5)cc43)n2)n1` (stereo not given) showed a pIC50 in assay [1] of 7.78.
Still for that read-out and setting: as for `CC(O)(C#Cc1cc2n(n1)CCCN2c1ccnc(Nc2ccccn2)n1)c1nccs1` (stereo not given), the figure is 8.23; as for `Cn1cc(Nc2nccc(N3CCCn4nc(C#CC(C)(O)c5nccs5)cc43)n2)cn1` (stereo not given), 8.27.
On the same count and under the same terms, as for `CC(O)(C#Cc1cc2n(n1)CCCN2c1ccnc(Nc2ccccc2)c1)c1nccs1` (stereo not given), the figure is 7.95.
The same measure, in the same setting: the same measure for `OC1(C#Cc2cc3n(n2)CCCN3c2ccnc(Nc3ccc4c(c3)OCO4)n2)CCn2ccnc21` (stereo not given): 8.36.
In assay [1], `OC1(C#Cc2cc3n(n2)CCCN3c2ccnc(Nc3ccc4c(c3)OCO4)n2)COC1` gave a pIC50 of less than 6.30.
